≈ marks a conversion by molar mass, not a printed value.
Tests used:
[1] = molecular target: T1, Neuropeptide Y receptor type 5 (Homo sapiens, UniProt Q15761); assay: Displacement of [125I]PYY from human recombinant NPYY5 receptor expressed in mouse LMtk cells; format: cell-based
T1 sequence (Q15761 whole entry): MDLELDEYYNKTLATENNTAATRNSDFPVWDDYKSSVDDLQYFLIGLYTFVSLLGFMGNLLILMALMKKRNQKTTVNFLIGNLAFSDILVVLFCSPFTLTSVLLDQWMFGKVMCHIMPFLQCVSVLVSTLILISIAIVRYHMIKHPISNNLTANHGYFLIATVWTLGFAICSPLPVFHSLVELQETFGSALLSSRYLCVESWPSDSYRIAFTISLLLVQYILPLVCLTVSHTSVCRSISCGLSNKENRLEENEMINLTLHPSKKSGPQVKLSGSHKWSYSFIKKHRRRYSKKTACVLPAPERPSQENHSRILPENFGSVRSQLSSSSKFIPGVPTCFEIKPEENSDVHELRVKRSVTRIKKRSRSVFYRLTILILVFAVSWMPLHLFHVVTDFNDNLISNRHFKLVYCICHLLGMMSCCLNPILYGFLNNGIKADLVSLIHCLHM

[2] = Ratio of drug level in brain to plasma at 2.7 mg/kg, iv after 10 mins; format: ADME, organism-based; design: dose 2.7 mg/kg, route intravenous; conditions: rat, read-out: BPR
Brain = assay: Drug level in rat brain at 2.7 mg/kg, iv after 10 mins; format: ADME, organism-based; design: dose 2.7 mg/kg, route intravenous; conditions: in vivo
[3] = Solubility in 0.2 M phosphate buffer at pH 6.8; format: physicochemical
[4] = Plasma concentration in rat plasma at 2.7 mg/kg, iv after 10 mins; format: ADME, organism-based; design: dose 2.7 mg/kg, route intravenous; conditions: read-out: Drug uptake
[5] = molecular target: T2, Neuropeptide Y receptor type 1 (Homo sapiens, UniProt P25929); assay: Inhibition of NPYY1 receptor
T2 sequence (P25929 whole entry): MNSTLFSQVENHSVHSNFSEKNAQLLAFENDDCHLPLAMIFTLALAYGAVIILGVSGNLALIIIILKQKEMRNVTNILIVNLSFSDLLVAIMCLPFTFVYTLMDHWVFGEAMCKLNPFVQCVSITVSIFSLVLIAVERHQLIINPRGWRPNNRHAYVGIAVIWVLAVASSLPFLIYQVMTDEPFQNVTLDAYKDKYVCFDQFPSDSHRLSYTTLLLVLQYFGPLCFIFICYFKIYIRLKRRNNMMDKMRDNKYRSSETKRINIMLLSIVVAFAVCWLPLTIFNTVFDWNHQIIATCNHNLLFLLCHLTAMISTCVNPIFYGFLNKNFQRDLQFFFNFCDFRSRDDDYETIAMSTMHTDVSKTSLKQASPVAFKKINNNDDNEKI

[6] = molecular target: T3, Neuropeptide Y receptor type 2 (Homo sapiens, UniProt P49146); assay: Inhibition of NPYY2 receptor
T3 sequence (P49146 whole entry): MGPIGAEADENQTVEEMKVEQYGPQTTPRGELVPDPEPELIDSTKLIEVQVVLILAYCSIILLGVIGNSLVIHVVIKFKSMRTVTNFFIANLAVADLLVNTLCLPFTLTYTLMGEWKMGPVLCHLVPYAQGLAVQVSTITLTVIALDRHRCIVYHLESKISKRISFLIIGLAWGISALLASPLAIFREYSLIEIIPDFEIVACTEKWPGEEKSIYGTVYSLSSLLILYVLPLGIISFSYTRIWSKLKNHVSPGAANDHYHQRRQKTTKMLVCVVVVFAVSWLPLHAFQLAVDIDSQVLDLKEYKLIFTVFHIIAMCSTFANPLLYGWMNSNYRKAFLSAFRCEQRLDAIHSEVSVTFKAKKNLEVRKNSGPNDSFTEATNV

[7] = Plasma concentration in rat plasma at 10 mg/kg, po after 2 hrs; format: ADME, organism-based; design: dose 10 mg/kg, route oral; conditions: read-out: Drug uptake
[8] = Selectivity for human NPYY5 receptor over NPYY4 receptor
[9] = Ratio of drug level in brain to plasma in rat at 10 mg/kg, po after 2 hrs; format: ADME, organism-based; design: dose 10 mg/kg, route oral
[10] = Selectivity for human NPYY5 receptor over NPYY1 receptor
[11] = Plasma concentration in rat plasma at 10 mg/kg, po after 4 hrs; format: ADME, organism-based; design: dose 10 mg/kg, route oral; conditions: read-out: Drug uptake
[12] = molecular target: T1, Neuropeptide Y receptor type 5; assay: Antagonist activity at human recombinant NPYY5 receptor expressed in mouse LMtk cells assessed as inhibition of NPY-induced calcium increase; format: functional, cell-based
[13] = molecular target: Neuropeptide Y receptor type 4 (Homo sapiens, UniProt P50391); assay: Inhibition of NPYY4 receptor
Neuropeptide Y receptor type 4, sequence (P50391 whole entry): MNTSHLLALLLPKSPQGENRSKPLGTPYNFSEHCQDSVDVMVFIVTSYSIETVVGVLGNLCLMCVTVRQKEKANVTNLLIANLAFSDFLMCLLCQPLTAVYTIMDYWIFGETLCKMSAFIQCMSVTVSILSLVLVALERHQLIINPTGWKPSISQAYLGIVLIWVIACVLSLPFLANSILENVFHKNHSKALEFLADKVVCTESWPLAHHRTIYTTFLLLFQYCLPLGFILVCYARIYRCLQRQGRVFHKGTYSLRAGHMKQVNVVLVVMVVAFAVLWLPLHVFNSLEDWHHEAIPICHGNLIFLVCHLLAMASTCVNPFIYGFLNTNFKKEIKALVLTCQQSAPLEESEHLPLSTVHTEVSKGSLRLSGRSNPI

[14] = Selectivity for human NPYY5 receptor over NPYY2 receptor

O=C(c1ccccc1)c1ccc2[nH]c([C@H]3CC[C@@]4(CC3)OC(=O)c3ccccc34)nc2c1
IC50 [1]: 2.4 nM

N#Cc1ccc2[nH]c([C@H]3CC[C@@]4(CC3)OC(=O)c3ccccc34)nc2c1
IC50 [1]: 20 nM

COC(=O)c1ccc2[nH]c([C@H]3CC[C@@]4(CC3)OC(=O)c3ccccc34)nc2c1
Kp at 10 min [2]: 0.55 | Drug uptake (Brain): 1.7 nmol/g | solubility [3]: 0.6 µg/mL (≈ 1.59 µM) | IC50 [1]: 7.7 nM | concentration at 10 min [4]: 3100 nM

Cn1nnc(-c2ccc3[nH]c([C@H]4CC[C@@]5(CC4)OC(=O)c4ccccc45)nc3c2)n1
IC50 [5]: > 10000 nM | IC50 [6]: > 10000 nM | concentration at 2 h [7]: 3200 nM | Selectivity ratio [8]: 1000 | Kp at 2 h [9]: 0.12 | Selectivity ratio [10]: 1000 | concentration at 4 h [11]: 990 nM | solubility [3]: 5.9 µg/mL (≈ 14.7 µM) | IC50 [12]: 7.2 nM | IC50 [13]: > 10000 nM | Selectivity ratio [14]: 1000 | IC50 [1]: 5.9 nM

O=C1O[C@]2(CC[C@H](c3nc4cc(-c5nnco5)ccc4[nH]3)CC2)c2ccccc21
IC50 [1]: 15 nM

COC(=O)c1ccc2[nH]c([C@H]3CC[C@@]4(CC3)OC(=O)c3ccccc34)nc2c1Cl
IC50 [1]: 4.5 nM

O=C1O[C@]2(CC[C@H](c3nc4ccc(-c5ccc(F)cc5)cc4[nH]3)CC2)c2ccccc21
IC50 [1]: 1.7 nM

O=C1O[C@]2(CC[C@H](c3nc4cc(-c5ccccn5)ccc4[nH]3)CC2)c2ccccc21
IC50 [1]: 2.4 nM

Cn1c2cc(Cl)c(Cl)cc2nc1[C@H]1CC[C@@]2(CC1)OC(=O)c1ccccc12
IC50 [1]: > 1000 nM

O=C1O[C@]2(CC[C@H](c3nc4cc(-c5cccnc5)ccc4[nH]3)CC2)c2ccccc21
IC50 [1]: 3.1 nM

O=C1O[C@]2(CC[C@H](c3nc4cc(Cl)c(C(F)(F)F)cc4[nH]3)CC2)c2ccccc21
solubility [3]: < 0.01 µg/mL | IC50 [1]: 2.6 nM

O=C1O[C@]2(CC[C@H](c3nc4cc(Cl)c(-c5ccccc5)cc4[nH]3)CC2)c2ccccc21
IC50 [1]: 2.2 nM

O=C1O[C@]2(CC[C@H](c3nc4cc(Cl)c(Cl)cc4[nH]3)CC2)c2ccccc21
IC50 [1]: 8 nM

O=C1O[C@]2(CC[C@H](c3nc4cc(C(F)(F)F)ccc4[nH]3)CC2)c2ccccc21
IC50 [1]: 47 nM

O=C1O[C@]2(CC[C@H](c3nc4cc(Br)ccc4[nH]3)CC2)c2ccccc21
IC50 [1]: 45 nM

O=C1O[C@]2(CC[C@H](c3nc4cc(Cl)ccc4[nH]3)CC2)c2ccccc21
IC50 [1]: 39 nM

O=C1O[C@]2(CC[C@H](c3nc4ccccc4[nH]3)CC2)c2ccccc21
IC50 [1]: 91 nM

O=C1O[C@]2(CC[C@H](c3nc4ccc(-c5ccccc5)cc4[nH]3)CC2)c2ccccc21
IC50 [1]: 2.3 nM

O=C1O[C@]2(CC[C@H](c3nc4cc(-c5noc(C(F)(F)F)n5)ccc4[nH]3)CC2)c2ccccc21
IC50 [1]: 2.1 nM

Cc1nc(-c2ccc3[nH]c([C@H]4CC[C@@]5(CC4)OC(=O)c4ccccc45)nc3c2)no1
IC50 [5]: > 10000 nM | IC50 [6]: > 10000 nM | concentration at 2 h [7]: 400 nM | Selectivity ratio [8]: 1000 | Selectivity ratio [10]: 1000 | IC50 [12]: 7 nM | IC50 [13]: > 10000 nM | Selectivity ratio [14]: 1000 | IC50 [1]: 5.1 nM

COC(=O)c1cc2[nH]c([C@H]3CC[C@]4(CC3)OC(=O)c3ccccc34)nc2cc1Cl
IC50 [1]: 1000 nM

Cc1nnc(-c2ccc3[nH]c([C@H]4CC[C@@]5(CC4)OC(=O)c4ccccc45)nc3c2)o1
IC50 [5]: > 10000 nM | IC50 [6]: > 10000 nM | concentration at 2 h [7]: 1400 nM | Selectivity ratio [8]: 1000 | Kp at 2 h [9]: 0.05 | Selectivity ratio [10]: 1000 | concentration at 4 h [11]: 850 nM | solubility [3]: 0.94 µg/mL (≈ 2.35 µM) | IC50 [12]: 5.5 nM | IC50 [13]: > 10000 nM | Selectivity ratio [14]: 1000 | IC50 [1]: 3.3 nM

COC(=O)c1cc2[nH]c([C@H]3CC[C@@]4(CC3)OC(=O)c3ccccc34)nc2cc1Cl
IC50 [1]: 2.2 nM

Cc1nnc(-c2ccc3[nH]c([C@H]4CC[C@]5(CC4)OC(=O)c4ccccc45)nc3c2)o1
IC50 [1]: 1000 nM
